In patent US10124004B2, “Pyrido[3,4-d]pyrimidine derivative and pharmaceutically acceptable salt thereof” (Teijin Pharma Limited, priority 2015, dated 2018):

Tests used:
[1] = biological target: T1, CDK2/cyclin A2 (Homo sapiens, UniProt P24941); experiment: Human CDK2/cyclin A2 inhibitory activity (QS S Assist CDK2/Cyclin A2_FP Kit, IMAP fluorescence polarization); assay type: biochemical; conditions: 50% inhibitory concentration against CDK2/cyclin A2, given as class symbol
T1 construct: purchased Carna Biosciences, Inc. QS S Assist CDK2/Cyclin A2_FP Kit
In short: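 Kinase activity read as fluorescence polarization (485/535 nm) after phosphorylated fluorescent substrate binds IMAP reagent (30 min, RT, dark). Enzyme (2.5 ng/well) reacted 60 min at RT with ATP/substrate/metal in HEPES pH 7.4 buffer with Tween 20 and DTT; no-enzyme wells define 0% activity; IC50 by curve fit.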

[2] = biological target: T2, CDK4/cyclin D3 (Homo sapiens, UniProt P11802); experiment: Human CDK4/cyclin D3 inhibitory activity (QS S Assist CDK4/Cyclin D3_FP Kit, IMAP fluorescence polarization); assay type: biochemical; conditions: 50% inhibitory concentration against CDK4/cyclin D3, given as class symbol
T2 construct: purchased Carna Biosciences, Inc. QS S Assist CDK4/Cyclin D3_FP Kit
In short: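 Percent inhibition, relative to DMSO with and without enzyme, was curve-fitted to give IC50 from polarization (ex 485, em 535 nm). The 45-min room-temperature reaction used 12.5-25 ng/well enzyme, kit ATP/substrate/metal mix, and HEPES pH 7.4 buffer with Tween20 and DTT, followed by 30-min IMAP binding in the dark.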

T2 sequence (P11802 whole entry): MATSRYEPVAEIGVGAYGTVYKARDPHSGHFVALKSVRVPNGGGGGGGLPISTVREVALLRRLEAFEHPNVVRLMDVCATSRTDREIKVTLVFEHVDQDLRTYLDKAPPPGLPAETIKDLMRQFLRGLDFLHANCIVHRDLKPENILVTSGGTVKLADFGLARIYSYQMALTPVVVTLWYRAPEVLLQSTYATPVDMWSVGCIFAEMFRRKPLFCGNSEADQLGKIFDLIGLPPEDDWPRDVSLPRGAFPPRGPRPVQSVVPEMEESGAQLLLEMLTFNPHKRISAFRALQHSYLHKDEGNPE
T2 sequence (P30281 whole entry partner): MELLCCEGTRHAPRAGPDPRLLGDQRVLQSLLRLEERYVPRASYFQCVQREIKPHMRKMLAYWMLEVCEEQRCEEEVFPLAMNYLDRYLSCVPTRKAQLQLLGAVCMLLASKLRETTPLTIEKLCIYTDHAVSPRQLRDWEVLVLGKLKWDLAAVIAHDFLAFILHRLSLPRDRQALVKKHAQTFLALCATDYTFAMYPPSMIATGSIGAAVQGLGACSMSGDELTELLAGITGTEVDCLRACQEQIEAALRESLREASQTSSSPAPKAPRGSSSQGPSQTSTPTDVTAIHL

| IC50 [1] | IC50 [2] | SMILES |
| --- | --- | --- |
| ≥ 100 nM | < 10 nM | CO[C@H](C)c1cc2cnc(Nc3ccc(N4C[C@H]5C[C@@H]4CN5)nn3)nc2c(NC(C)C)n1 [Compound 859] |
| ≥ 100 nM | < 10 nM | CC(C)Nc1nc([C@@H](C)O)cc2cnc(Nc3ccc(N4CCNCC4C(F)(F)F)nn3)nc12 (some centres unmarked) [Compound 863] |
| ≥ 100 nM | < 10 nM | CC(C)Nc1nc(C(C)O)cc2cnc(Nc3ccc(OC4CNCCC4F)cn3)nc12 (centres unmarked) [Compound 864] |
| ≥ 100 nM | 10 to 100 nM | C[C@@H](O)c1cc2cnc(Nc3ccc(N4CCNCC4=O)cn3)nc2c(N(C)[C@H]2CCCOC2)n1 [Compound 872] |
| ≥ 100 nM | < 10 nM | CO[C@H](C)c1cc2cnc(Nc3ccc(OC4CCNCC4)cn3)nc2c(NC2CCOCC2)n1 [Compound 873] |
| ≥ 100 nM | < 10 nM | CO[C@H](C)c1cc2cnc(Nc3ccc(OC4CCNCC4)cn3)nc2c(N[C@H]2CCCOC2)n1 [Compound 874] |
| ≥ 100 nM | < 10 nM | CC1(c2cc3cnc(Nc4ccc(N5CCNCC5)nn4)nc3c(N[C@H]3CCCOC3)n2)COC1 [Compound 880] |
| ≥ 100 nM | < 10 nM | CC(C)Nc1nc(C2(C)COC2)cc2cnc(Nc3ccc4c(n3)CCNC4)nc12 [Compound 887] |
| ≥ 100 nM | < 10 nM | CC1(c2cc3cnc(Nc4ccc5c(n4)CCNC5)nc3c(N[C@H]3CCCOC3)n2)COC1 [Compound 888] |

The next lines start with the compound.

| SMILES | IC50 [1] | IC50 [2] |
| --- | --- | --- |
| CCCNc1nc([C@@H](C)OC)cc2cnc(Nc3ccc(CN4C[C@H]5C[C@@H]4CN5)cn3)nc12 [Compound 857] | ≥ 100 nM | < 10 nM |
| CCCNc1nc([C@@H](C)OC)cc2cnc(Nc3ccc(N4C[C@H]5C[C@@H]4CN5)nn3)nc12 [Compound 858] | ≥ 100 nM | < 10 nM |
| CO[C@H](C)c1cc2cnc(Nc3ccc(CN4CCN(CCO)CC4)cn3)nc2c(N[C@H]2CCCOC2)n1 [Compound 860] | ≥ 100 nM | < 10 nM |
| CO[C@H](C)c1cc2cnc(Nc3ccc(CN4CCNCC4)cn3)nc2c(NCC(C)C)n1 [Compound 861] | ≥ 100 nM | < 10 nM |
| CO[C@H](C)c1cc2cnc(Nc3ccc(N4CCNCC4)nn3)nc2c(NCC(C)C)n1 [Compound 862] | ≥ 100 nM | < 10 nM |
| CC(C)Nc1nc([C@@H](C)O)cc2cnc(Nc3ccc(OCCNS(C)(=O)=O)cn3)nc12 [Compound 867] | ≥ 100 nM | < 10 nM |
| CNCCOc1ccc(Nc2ncc3cc([C@@H](C)O)nc(N(C)[C@H]4CCCOC4)c3n2)nc1 [Compound 868] | ≥ 100 nM | < 10 nM |
| CC(C)N(C)c1nc([C@@H](C)O)cc2cnc(Nc3ccc(N4CCNCC4=O)cn3)nc12 [Compound 871] | ≥ 100 nM | 10 to 100 nM |
| CC(C)Nc1nc(C2CCOC2)cc2cnc(Nc3ccc(N4CCNCC4)nn3)nc12 (centres unmarked) [Compound 877] | ≥ 100 nM | < 10 nM |
| c1cc(N2CCNCC2)nnc1Nc1ncc2cc(C3CCOC3)nc(N[C@H]3CCCOC3)c2n1 (some centres unmarked) [Compound 878] | ≥ 100 nM | < 10 nM |
| CC(C)Nc1nc(C2CCOC2)cc2cnc(Nc3ccc(CN4CCNCC4)cn3)nc12 (centres unmarked) [Compound 881] | ≥ 100 nM | < 10 nM |
| c1cc(Nc2ncc3cc(C4CCOC4)nc(N[C@H]4CCCOC4)c3n2)ncc1CN1CCNCC1 (some centres unmarked) [Compound 882] | ≥ 100 nM | < 10 nM |
| CC1(c2cc3cnc(Nc4ccc(CN5CCNCC5)cn4)nc3c(N[C@H]3CCCOC3)n2)COC1 [Compound 884] | ≥ 100 nM | < 10 nM |
| CC(C)Nc1nc(C2CCOC2)cc2cnc(Nc3ccc4c(n3)CCNC4)nc12 (centres unmarked) [Compound 885] | ≥ 100 nM | < 10 nM |
| c1cc2c(nc1Nc1ncc3cc(C4CCOC4)nc(N[C@H]4CCCOC4)c3n1)CCNC2 (some centres unmarked) [Compound 886] | ≥ 100 nM | < 10 nM |
| CC(C)Nc1nc(C2CCOC2)cc2cnc(Nc3ccc(N4CCN(CC(=O)O)CC4C(F)(F)F)cn3)nc12 (centres unmarked) [Compound 889] | ≥ 100 nM | 10 to 100 nM |
